One assay deals with PD-1/PD-L1 (Homo sapiens, UniProt Q9NZQ7). Kind of assay: PD-1/PD-L1 biochemical protein-protein interaction assay (ALPHA). The class given is binding. To be noted: 0.3 nM His tagged PD-L1, 2.5 nM biotinylated Fc-PD-1, 60 minutes at 25° C., read-out: IC50 PD-L1-PD-1 Alpha IC50-mono PD-L1-fcP-D1. Put shortly: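 Compounds are tested for blocking the PD-1/PD-L1 extracellular-domain interaction using an ALPHA bead assay, in which inhibition lowers the luminescent signal. Reactions run 60 min at 25° C with 0.3 nM His-PD-L1 and 2.5 nM biotinylated Fc-PD-1. IC50 values come from four-parameter fits.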
Chain of PD-1/PD-L1 (Q9NZQ7 19-238 limits assumed): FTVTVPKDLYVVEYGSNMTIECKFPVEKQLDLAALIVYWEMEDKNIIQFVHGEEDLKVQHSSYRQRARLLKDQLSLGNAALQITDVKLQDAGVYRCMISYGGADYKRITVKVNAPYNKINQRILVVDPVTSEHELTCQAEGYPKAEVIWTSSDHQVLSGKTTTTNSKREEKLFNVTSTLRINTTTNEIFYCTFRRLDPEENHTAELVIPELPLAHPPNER

The target of assay [1] is T1, interaction between the recombinant extracellular domain (ECD) of PD-1 and native cell-bound PD-L1 (Homo sapiens, UniProt Q9NZQ7).
T1 construct: expressed in transfected cells
T1 sequence (Q9NZQ7 19-290): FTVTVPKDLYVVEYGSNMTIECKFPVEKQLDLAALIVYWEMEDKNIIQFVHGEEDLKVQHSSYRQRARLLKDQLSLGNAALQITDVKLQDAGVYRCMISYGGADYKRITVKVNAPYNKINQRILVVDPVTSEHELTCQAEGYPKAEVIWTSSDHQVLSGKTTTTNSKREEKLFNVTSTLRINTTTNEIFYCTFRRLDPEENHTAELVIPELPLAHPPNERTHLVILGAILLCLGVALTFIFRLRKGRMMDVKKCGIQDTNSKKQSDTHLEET
Nature of the assay: CHO/PD-L1 cell capture assay. To be noted: CHO cells overexpressing PD-L1, pre-incubated 1 hr with compound, captured on biotinylated Fc-PD-1 coated plates, 75 min at room temperature. The class given is cell-based. Put shortly: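 CHO cells stably overexpressing PD-L1 were pre-incubated 1 hr with compound, then captured 75 min at room temperature on biotinylated Fc-PD-1 ECD bound to streptavidin plates. After glutaraldehyde/Draq5 fixation-staining, captured cells were counted by high-content microscopy; EC50 from four-parameter dose-response fits.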

For a further assay, the target named is T2, PD-1/PD-L1 interaction (Homo sapiens, UniProt Q9NZQ7).
T2 construct: expressed in transfected cells; host or cells: CHO cells (aAPC-PD-L1) co-cultured with Jurkat cells overexpressing PD-1 and an NFAT-luciferase reporter
T2 sequence (Q9NZQ7 19-290): as above
Kind of assay: PD-1/PD-L1 NFAT reporter co-culture assay. The format is cell-based. To be noted: Jurkat PD-1 NFAT-luciferase cells co-cultured with aAPC-PD-L1 CHO cells, 6 hrs at 37° C.; read-out: EC50 NFAT Luciferase. Put shortly: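 Compounds are scored by restoration of NFAT-luciferase signal in PD-1-expressing Jurkat cells cultured 6 h at 37 °C on CHO cells presenting anti-CD3 and PD-L1; EC50 values derive from four-parameter curve fitting.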

One may read the IC50 as the concentration at which inhibition is half-maximal. In general, EC50 refers to the concentration at which the effect is half-maximal. Regarding `COc1nc(O[C@H]2CCc3c(-c4cccc5c4CC[C@@H]5Oc4nc(OC)c(CN[C@@](C)(CO)C(=O)O)cc4Br)cccc32)c(Br)cc1CN[C@@](C)(CO)C(=O)O` [Example 5, (2S,2′S)-2,2′-((((((1S,1′S)-2,2′,3,3′-tetrahydro-1H,1′H-[4,4′-biindene]-1,1′-diyl)bis(oxy))bis(5-bromo-2-methoxypyridine-6,3-diyl))bis(methylene))bis(azanediyl))bis(3-hydroxy-2-methylpropanoic acid)], on PD-1/PD-L1, the IC50 was 0.1 nM. Further, the concentration for a half-maximal effect (EC50) in assay [1] came out at 38.1 nM; on PD-1/PD-L1 interaction, 29 nM.
For the compound `COc1nc(OC2CCc3c(-c4cccc5c4CCC5Oc4nc(OC)c(CNC[C@@H](O)CC(=O)O)cc4Cl)cccc32)c(Cl)cc1CNC[C@@H](O)CC(=O)O` (stereo partly drawn) [Example 9, (3S,3′S)-4,4′-(((((2,2′,3,3′-tetrahydro-1H,1′H-[4,4′-biindene]-1,1′-diyl)bis(oxy))bis(5-chloro-2-methoxypyridine-6,3-diyl))bis(methylene))bis(azanediyl))bis(3-hydroxybutanoic acid)], the concentration for half-maximal inhibition (IC50) at PD-1/PD-L1 stood at 0.5 nM. For the same compound, the EC50 was found to be 102 nM in assay [1] and 340 nM at PD-1/PD-L1 interaction.
For `COc1nc(O[C@H]2CCc3c(-c4cccc5c4CC[C@@H]5Oc4ccc(CNC[C@@H](O)CC(=O)O)c(OC)n4)cccc32)ccc1CNC[C@@H](O)CC(=O)O` [Example 11, (3S,3′S)-4,4′-((((((1S,1′S)-2,2′,3,3′-tetrahydro-1H,1′H-[4,4′-biindene]-1,1′-diyl)bis(oxy))bis(2-methoxypyridine-6,3-diyl))bis(methylene))bis(azanediyl))bis(3-hydroxybutanoic acid)] the same measures were 0.4 nM, 170 nM and 1100 nM.
For `COc1nc(OC2CCc3c(-c4cccc5c4CCC5Oc4ccc(CNC[C@@H](O)CC(=O)O)c(OC)n4)cccc32)ccc1CNC[C@@H](O)CC(=O)O` (stereo partly drawn) [Example 13, (3S,3′S)-4,4′-(((((2,2′,3,3′-tetrahydro-1H,1′H-[4,4′-biindene]-1,1′-diyl)bis(oxy))bis(2-methoxypyridine-6,3-diyl))bis(methylene))bis(azanediyl))bis(3-hydroxybutanoic acid)], at PD-1/PD-L1, the 50% inhibitory concentration (IC50) was 2.2 nM. The EC50 in assay [1] stood at 457 nM; on PD-1/PD-L1 interaction, 4800 nM.
For `Cc1c(COc2cc(OCc3cncc(C#N)c3)c(CNCCO)cc2Cl)cccc1-c1cccc(COc2cc(OCc3cncc(C#N)c3)c(CNCCO)cc2Cl)c1` [Example 20, 5,5′-((((((2-methyl-[1,1′-biphenyl]-3,3′-diyl)bis(methylene))bis(oxy))bis(4-chloro-6-(((2-hydroxyethyl)amino)methyl)-3,1-phenylene))bis(oxy))bis(methylene))dinicotinonitrile], the 50% inhibitory concentration (IC50) at PD-1/PD-L1 is 12.6 nM. In addition, the results for the concentration for a half-maximal effect (EC50) (in assay [1]; on PD-1/PD-L1 interaction) were 752 nM and 1200 nM, respectively.
For `COc1nc(OCc2cccc(-c3cccc(COc4nc(OC)c(CNC[C@@H](O)CC(=O)O)cc4Cl)c3C)c2C)c(Cl)cc1CNC[C@@H](O)CC(=O)O` [Example 29, (3S,3′S)-4,4′-((((((2,2′-dimethyl-[1,1′-biphenyl]-3,3′-diyl)bis(methylene))bis(oxy))bis(5-chloro-2-methoxypyridine-6,3-diyl))bis(methylene))bis(azanediyl))bis(3-hydroxybutanoic acid)], the 50% inhibitory concentration (IC50) on PD-1/PD-L1 was 0.8 nM. Further, the concentration giving a half-maximal response (EC50) in assay [1] was 218 nM; at PD-1/PD-L1 interaction, 244 nM.
Take `Cc1c(COc2nc(OCc3cncc(C#N)c3)c(CNC[C@H](O)CC(=O)O)cc2Cl)cccc1-c1cccc(COc2nc(OCc3cncc(C#N)c3)c(CNC[C@H](O)CC(=O)O)cc2Cl)c1C` [Example 32, (3R,3′R)-4,4′-((((((2,2′-dimethyl-[1,1′-biphenyl]-3,3′-diyl)bis(methylene))bis(oxy))bis(5-chloro-2-((5-cyanopyridin-3-yl)methoxy)pyridine-6,3-diyl))bis(methylene))bis(azanediyl))bis(3-hydroxybutanoic acid)]: the IC50 on PD-1/PD-L1 stood at 0.3 nM. Further, the concentration giving a half-maximal response (EC50) in assay [1] was found to be 42.1 nM; on PD-1/PD-L1 interaction it was 127 nM.
As to `Cc1c(COc2nc(OCc3cncc(C#N)c3)c(CNC[C@@H](O)CC(=O)O)cc2Cl)cccc1-c1cccc(COc2nc(OCc3cncc(C#N)c3)c(CNC[C@@H](O)CC(=O)O)cc2Cl)c1C` [Example 34, (3S,3′S)-4,4′-((((((2,2′-dimethyl-[1,1′-biphenyl]-3,3′-diyl)bis(methylene))bis(oxy))bis(5-chloro-2-((5-cyanopyridin-3-yl)methoxy)pyridine-6,3-diyl))bis(methylene))bis(azanediyl))bis(3-hydroxybutanoic acid)], the IC50 at PD-1/PD-L1 was 0.4 nM. For the same compound, the EC50 was determined as 321 nM in assay [1] and 195 nM on PD-1/PD-L1 interaction.
On to `Cc1c(COc2nc(OCc3cncc(C#N)c3)c(CNCCO)cc2Cl)cccc1-c1cccc(COc2nc(OCc3cncc(C#N)c3)c(CNCCO)cc2Cl)c1C` [Example 35, 5,5′-((((((2,2′-dimethyl-[1,1′-biphenyl]-3,3′-diyl)bis(methylene))bis(oxy))bis(5-chloro-3-(((2-hydroxyethyl)amino)methyl)pyridine-6,2-diyl))bis(oxy))bis(methylene))dinicotinonitrile], for which the concentration for half-maximal inhibition (IC50) on PD-1/PD-L1 was 15.6 nM. The concentration giving a half-maximal response (EC50) was 264 nM in assay [1] and 296 nM on PD-1/PD-L1 interaction.
As for `CCCc1cc(CNCCO)c(OCc2cncc(C#N)c2)cc1OCc1cccc(-c2cccc(COc3cc(OCc4cncc(C#N)c4)c(CNCCO)cc3CCC)c2C)c1C` [Example 39, 5,5′-((((((2,2′-dimethyl-[1,1′-biphenyl]-3,3′-diyl)bis(methylene))bis(oxy))bis(6-(((2-hydroxyethyl)amino)methyl)-4-propyl-3,1-phenylene))bis(oxy))bis(methylene))dinicotinonitrile], the IC50 at PD-1/PD-L1 worked out at 167 nM. The results for the EC50 (in assay [1]; on PD-1/PD-L1 interaction) were 267 nM and not below 50000 nM, respectively.
As to `Cc1c(COc2nc(OCc3cncc(S(C)(=O)=O)c3)c(CN[C@@](C)(CO)C(=O)O)cc2Br)cccc1-c1cccc(COc2nc(OCc3cncc(S(C)(=O)=O)c3)c(CN[C@@](C)(CO)C(=O)O)cc2Br)c1C` [Example 41, (2S,2′S)-2,2′-((((((2,2′-dimethyl-[1,1′-biphenyl]-3,3′-diyl)bis(methylene))bis(oxy))bis(5-bromo-2-((5-(methylsulfonyl)pyridin-3-yl)methoxy)pyridine-6,3-diyl))bis(methylene))bis(azanediyl))bis(3-hydroxy-2-methylpropanoic acid)], on PD-1/PD-L1, the IC50 was found to be 0.2 nM. In addition, the EC50 in assay [1] stood at 248 nM; on PD-1/PD-L1 interaction it was 188 nM.
With `Cc1c(COc2nc(OCc3cncc(S(C)(=O)=O)c3)c(CNC[C@@H](O)CC(=O)O)cc2Br)cccc1-c1cccc(COc2nc(OCc3cncc(S(C)(=O)=O)c3)c(CNC[C@@H](O)CC(=O)O)cc2Br)c1C` [Example 42, (3S,3′S)-4,4′-((((((2,2′-dimethyl-[1,1′-biphenyl]-3,3′-diyl)bis(methylene))bis(oxy))bis(5-bromo-2-((5-(methylsulfonyl)pyridin-3-yl)methoxy)pyridine-6,3 diyl))bis(methylene))bis(azanediyl))bis(3-hydroxybutanoic acid)], on PD-1/PD-L1, the IC50 came out at 0.3 nM. Further, the results for the concentration for a half-maximal effect (EC50) (in assay [1]; at PD-1/PD-L1 interaction) were 149 nM and 123 nM, respectively.
Take `COc1nc(OCc2cccc(-c3cccc(COc4ccc(CN[C@@](C)(CO)C(=O)O)c(OC)n4)c3C)c2C)ccc1CN[C@@](C)(CO)C(=O)O` [Example 61, (2S,2′S)-2,2′-((((((2,2′-dimethyl-[1,1′-biphenyl]-3,3′-diyl)bis(methylene))bis(oxy))bis(2-methoxypyridine-6,3-diyl))bis(methylene))bis(azanediyl))bis(3-hydroxy-2-methylpropanoic acid)]: the half-inhibitory concentration (IC50) on PD-1/PD-L1 was found to be 0.7 nM. Also, the EC50 is 200 nM in assay [1] and 6780 nM at PD-1/PD-L1 interaction.
As for `Cc1c(COc2cc(OCc3cncc(C#N)c3)c(CNCCO)cc2Cl)cccc1-c1cccc(COc2cc(OCc3cncc(C#N)c3)c(CNCCO)cc2Cl)c1C` [Example 68, 5,5′-((((((2,2′-dimethyl-[1,1′-biphenyl]-3,3′-diyl)bis(methylene))bis(oxy))bis(4-chloro-6-(((2-hydroxyethyl)amino)methyl)-3,1-phenylene))bis(oxy))bis(methylene))dinicotinonitrile], on PD-1/PD-L1, the IC50 was 10.3 nM. The values for the concentration for a half-maximal effect (EC50) (in assay [1]; on PD-1/PD-L1 interaction) were 279 nM and 553 nM, respectively.
The like results for `Cc1c(-c2ccc(OCCNC[C@@H](O)CC(=O)O)cc2)cccc1-c1cccc(-c2ccc(OCCNC[C@@H](O)CC(=O)O)cc2)c1C` [Example 106, (3S,3′S)-4,4′-((((2′,2″-dimethyl-[1,1′:3′,1″:3″,1′″-quaterphenyl]-4,4′″-diyl)bis(oxy))bis(ethane-2,1-diyl))bis(azanediyl))bis(3-hydroxybutanoic acid)] were, in that order, 0.4 nM, 110 nM and 5270 nM.
